# The source made the active and inactive calls.
# What was measured:
# [1] = molecular target: T1, Small ubiquitin-related modifier 1 (Homo sapiens, UniProt P63165); test: SUMO1 protein interaction blockers, potency – biochemical, fluorescence polarization, uHTS hits, dose response (AID 624382); type: functional; conditions: read-out: IC50_Mean
# [2] = molecular target: T1, Small ubiquitin-related modifier 1; test: SUMO1 protein-protein binding blockers, potency – biochemical, FRET, dose response (AID 624383); type: functional; conditions: read-out: IC50_Mean
# [3] = reduction of Shn3 3'UTR-driven luciferase in osteoblasts – cell-based, Clone20 osteoblasts, firefly luciferase, cherry-picked, dose response (AID 624132); type: functional;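 also: firefly luciferase luminescence from reporter carrying the Shn3 3'UTR in osteoblasts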
# [4] = loss of viability in HepG2 cells – cell-based, CellTiter-Glo, cherry-picked, cytotoxicity control for Shn3 inhibitor project, dose response (AID 624134); type: functional
# [5] = non-specific 3'UTR reporter inhibition in Clone20-Shn3RL – cell-based, Renilla luciferase, cherry-picked, counter-screen for Shn3 inhibitor project, dose response (AID 624133); type: functional
# Galanin receptor type 3 = molecular target: T2, Galanin receptor type 3 (Homo sapiens, UniProt O60755); test: Fluorescence-based cell-based primary high throughput dose response assay to identify antagonists of the Galanin Receptor 3 (GalR3).; type: functional
# T2 sequence (O60755 whole entry): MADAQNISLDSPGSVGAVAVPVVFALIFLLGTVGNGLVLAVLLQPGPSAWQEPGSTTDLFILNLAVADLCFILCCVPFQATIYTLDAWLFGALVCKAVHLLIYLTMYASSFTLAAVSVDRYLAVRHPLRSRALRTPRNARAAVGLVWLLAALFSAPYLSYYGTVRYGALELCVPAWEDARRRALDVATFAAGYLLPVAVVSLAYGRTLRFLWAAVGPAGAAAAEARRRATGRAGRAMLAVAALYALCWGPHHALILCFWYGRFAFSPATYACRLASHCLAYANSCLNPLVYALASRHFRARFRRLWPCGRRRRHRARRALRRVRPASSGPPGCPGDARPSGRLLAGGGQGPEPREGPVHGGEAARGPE
# cells [6] = type: functional, cell-based; conditions: HEK-CNG
# [7] = molecular target: T3, COUP transcription factor 2 (Homo sapiens, UniProt P24468); test: Luminescence-based cell-based high throughput dose response assay to identify inhibitors of COUP-TFII (NR2F2).; type: functional;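 also: HEK293 cells transiently cotransfected with COUP-TFII expression vector and reporter; luciferase reporter luminescence driven by COUP-TFII from the pX2-168 reporter plasmid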
# T3 sequence (P24468 whole entry): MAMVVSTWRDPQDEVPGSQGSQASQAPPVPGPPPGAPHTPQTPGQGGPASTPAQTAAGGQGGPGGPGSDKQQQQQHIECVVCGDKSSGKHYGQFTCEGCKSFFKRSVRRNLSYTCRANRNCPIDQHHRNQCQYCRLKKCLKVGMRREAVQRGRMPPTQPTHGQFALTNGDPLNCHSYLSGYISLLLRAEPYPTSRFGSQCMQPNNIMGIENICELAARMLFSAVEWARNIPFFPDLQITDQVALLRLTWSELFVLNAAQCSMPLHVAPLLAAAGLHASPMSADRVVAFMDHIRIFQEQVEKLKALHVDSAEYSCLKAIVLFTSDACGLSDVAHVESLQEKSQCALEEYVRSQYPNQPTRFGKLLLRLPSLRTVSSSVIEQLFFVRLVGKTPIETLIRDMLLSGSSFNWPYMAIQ
# [8] = molecular target: Nuclear receptor subfamily 5 group A member 2 (Homo sapiens, UniProt O00482); type: functional, cell-based;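 also: HEK293T cells transfected with LRH-1 and a StAR promoter luciferase reporter; potency for inhibitors that lower LRH-1 driven reporter light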
# Sequence of Nuclear receptor subfamily 5 group A member 2 (O00482 whole entry): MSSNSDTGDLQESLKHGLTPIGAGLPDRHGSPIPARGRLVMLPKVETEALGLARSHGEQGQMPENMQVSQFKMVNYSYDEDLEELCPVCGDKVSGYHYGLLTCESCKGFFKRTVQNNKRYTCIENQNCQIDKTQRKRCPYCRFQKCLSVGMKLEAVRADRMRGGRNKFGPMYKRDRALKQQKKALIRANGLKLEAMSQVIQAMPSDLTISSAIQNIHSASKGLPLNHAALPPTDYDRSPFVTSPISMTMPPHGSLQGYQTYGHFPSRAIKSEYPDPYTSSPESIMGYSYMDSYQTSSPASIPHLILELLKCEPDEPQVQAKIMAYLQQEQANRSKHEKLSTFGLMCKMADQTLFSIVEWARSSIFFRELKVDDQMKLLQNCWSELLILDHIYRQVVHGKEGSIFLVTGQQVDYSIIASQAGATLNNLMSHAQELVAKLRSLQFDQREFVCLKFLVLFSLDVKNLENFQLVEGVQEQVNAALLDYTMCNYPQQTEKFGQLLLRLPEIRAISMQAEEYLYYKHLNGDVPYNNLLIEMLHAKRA
# Steroidogenic factor 1 = Steroidogenic factor 1 (Homo sapiens, UniProt Q13285); test: Counterscreen for inverse agonists of the liver receptor homolog-1 (LRH-1; NR5A2): Luminescence-based cell-based high throughput dose response assay to identify inverse agonists of the Steroidogenic Factor 1 Nuclear Receptor (SF1; NR5A1).; type: functional
# Sequence of Steroidogenic factor 1 (Q13285 whole entry): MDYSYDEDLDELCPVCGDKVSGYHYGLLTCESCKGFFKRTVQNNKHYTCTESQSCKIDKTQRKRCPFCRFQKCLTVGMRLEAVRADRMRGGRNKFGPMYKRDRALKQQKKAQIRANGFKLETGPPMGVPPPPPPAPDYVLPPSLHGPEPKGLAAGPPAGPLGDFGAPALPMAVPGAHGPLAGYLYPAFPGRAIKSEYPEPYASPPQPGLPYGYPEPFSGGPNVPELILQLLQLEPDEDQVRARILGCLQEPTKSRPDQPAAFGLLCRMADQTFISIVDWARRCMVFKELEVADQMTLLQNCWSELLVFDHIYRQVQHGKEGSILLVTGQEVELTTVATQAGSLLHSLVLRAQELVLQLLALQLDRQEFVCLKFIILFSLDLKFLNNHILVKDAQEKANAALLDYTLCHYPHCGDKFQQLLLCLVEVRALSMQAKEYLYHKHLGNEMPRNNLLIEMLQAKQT
# [9] = nonselective StAR promoter luciferase inhibitors – cell-based, luminescence, luciferase reporter, counter-screen for LRH-1 inverse agonist project, dose response (AID 651969); type: functional
# [10] = system: Streptococcus sp. 'group A'; test: Streptococcus pyogenes SK(-)GAS viability under kanamycin – luminescence, BacTiterGlo, confirmation, counter-screen for streptokinase expression inhibitor project, dose response (AID 1900); type: functional, organism-based
# Streptococcus = test: GAS UMAA2166 growth inhibition – luminescence, BacTiterGlo, counter-screen for streptokinase expression inhibitor project, dose response (AID 1915); type: functional, organism-based;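 also: potency for reduction of bacterial viability or growth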
# Beta-galactosidase = Beta-galactosidase (Escherichia coli, UniProt Q8VNN2); test: detection-enzyme interference by beta-gal modulators – biochemical, E. coli enzyme, set 3, artefact control for CCR6 antagonist project, dose response (AID 504712); type: functional
# Sequence of Beta-galactosidase (Q8VNN2 whole entry, the tested form may be a part): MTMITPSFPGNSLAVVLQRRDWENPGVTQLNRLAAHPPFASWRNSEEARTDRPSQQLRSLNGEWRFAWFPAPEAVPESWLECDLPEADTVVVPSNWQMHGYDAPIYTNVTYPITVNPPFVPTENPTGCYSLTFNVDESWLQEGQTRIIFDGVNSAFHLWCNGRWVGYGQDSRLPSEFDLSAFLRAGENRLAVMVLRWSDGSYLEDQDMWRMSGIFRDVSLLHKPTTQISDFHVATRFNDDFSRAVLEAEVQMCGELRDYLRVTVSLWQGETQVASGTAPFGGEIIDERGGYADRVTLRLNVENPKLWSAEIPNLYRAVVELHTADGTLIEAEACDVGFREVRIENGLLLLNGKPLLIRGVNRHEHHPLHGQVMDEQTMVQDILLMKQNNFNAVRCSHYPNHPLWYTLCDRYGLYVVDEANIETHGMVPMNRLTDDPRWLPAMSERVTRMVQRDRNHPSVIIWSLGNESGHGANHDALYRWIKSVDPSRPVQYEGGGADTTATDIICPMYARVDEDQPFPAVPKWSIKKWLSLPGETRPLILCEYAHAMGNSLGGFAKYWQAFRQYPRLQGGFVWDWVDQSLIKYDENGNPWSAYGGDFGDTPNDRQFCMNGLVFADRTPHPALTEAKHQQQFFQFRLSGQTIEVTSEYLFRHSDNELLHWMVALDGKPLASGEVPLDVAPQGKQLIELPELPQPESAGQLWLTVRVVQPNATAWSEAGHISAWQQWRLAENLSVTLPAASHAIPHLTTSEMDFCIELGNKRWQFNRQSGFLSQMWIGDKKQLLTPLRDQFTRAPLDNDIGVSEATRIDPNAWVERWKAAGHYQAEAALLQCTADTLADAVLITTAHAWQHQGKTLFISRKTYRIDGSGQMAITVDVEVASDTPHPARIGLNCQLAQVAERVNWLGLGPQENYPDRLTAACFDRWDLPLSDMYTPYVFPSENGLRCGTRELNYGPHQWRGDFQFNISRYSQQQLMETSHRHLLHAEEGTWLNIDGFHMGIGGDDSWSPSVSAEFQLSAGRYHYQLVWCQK
# [11] = molecular target: Photoreceptor-specific nuclear receptor (Homo sapiens, UniProt Q9Y5X4); type: functional, cell-based;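 also: CHO-S cells with Gal4-NCOR and VP16-NR2E3 two-hybrid luciferase reporter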
# Sequence of Photoreceptor-specific nuclear receptor (Q9Y5X4 whole entry, the tested form may be a part): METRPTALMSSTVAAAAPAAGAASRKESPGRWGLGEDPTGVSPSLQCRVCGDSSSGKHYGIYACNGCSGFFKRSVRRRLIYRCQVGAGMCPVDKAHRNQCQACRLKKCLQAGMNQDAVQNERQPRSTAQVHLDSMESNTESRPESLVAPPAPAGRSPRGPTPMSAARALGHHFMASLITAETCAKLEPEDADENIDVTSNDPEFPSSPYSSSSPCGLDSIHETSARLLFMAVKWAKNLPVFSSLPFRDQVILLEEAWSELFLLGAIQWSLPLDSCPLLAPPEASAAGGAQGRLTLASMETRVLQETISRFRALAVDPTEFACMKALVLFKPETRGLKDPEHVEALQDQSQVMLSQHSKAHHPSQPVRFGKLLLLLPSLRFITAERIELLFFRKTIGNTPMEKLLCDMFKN
# [12] = NIH-3T3 fibroblast cytotoxicity, dose response, cytotoxicity control, cell-based, fluorescence, Alamar Blue, secondary assay (AID 2327); type: functional;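 also: NIH-3T3 mouse fibroblasts cultured with fluconazole at 8 µg/mL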
# BJ [13] = test: BJ-TERT fibroblast viability loss – cell-based, RAS-independent, luminescence, dose response (AID 1933); type: functional; conditions: Homo sapiens
# cells [14] = type: functional, cell-based
# BJ [15] = test: cells; type: functional, cell-based; conditions: Homo sapiens
# [16] = fluconazole-exposed Candida albicans growth modulators – fluorescence, retest, confirmation (AID 2467); type: functional, cell-based
# cells [17] = type: functional, cell-based; remark: listed apart in the source
# BJ [18] = test: BJ-TERT-LT-ST fibroblast viability loss – cell-based, RAS-independent, luminescence, dose response (AID 1935); type: functional; conditions: Homo sapiens;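 also: BJ fibroblasts immortalized with TERT plus LT and ST oncogenes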
# [19] = DRD fibroblast viability loss – cell-based, non-viral oncogenic, luminescence, dose response (AID 1934); type: functional; conditions: Homo sapiens
# Nonstructural protein 1 = Nonstructural protein 1 (Influenza A virus, UniProt Q194T2); type: functional, Influenza A virus (A/California/07/2009(H1N1))
# Sequence of Nonstructural protein 1 (Q194T2 whole entry): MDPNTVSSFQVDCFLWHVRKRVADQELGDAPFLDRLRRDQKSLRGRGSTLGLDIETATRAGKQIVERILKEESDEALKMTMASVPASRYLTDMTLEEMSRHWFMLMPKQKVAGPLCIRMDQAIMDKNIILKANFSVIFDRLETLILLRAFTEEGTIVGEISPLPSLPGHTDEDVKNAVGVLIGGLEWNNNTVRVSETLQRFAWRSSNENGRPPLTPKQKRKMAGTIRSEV
# [20] = molecular target: T4, Heat shock factor protein 1 (Mus musculus, UniProt P38532); test: enhancement of HSF1-driven luciferase signal – cell-based, NIH3T3, luminescence, dose retest, confirmation (AID 435004); type: functional;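 also: stress induced by proteasome inhibitor MG132 added 30 min after compound; luciferase reporter driven by HSF1 response element in NIH3T3 cells; actives raise luminescence as potentiators of the MG132 stress response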
# T4 sequence (P38532 whole entry): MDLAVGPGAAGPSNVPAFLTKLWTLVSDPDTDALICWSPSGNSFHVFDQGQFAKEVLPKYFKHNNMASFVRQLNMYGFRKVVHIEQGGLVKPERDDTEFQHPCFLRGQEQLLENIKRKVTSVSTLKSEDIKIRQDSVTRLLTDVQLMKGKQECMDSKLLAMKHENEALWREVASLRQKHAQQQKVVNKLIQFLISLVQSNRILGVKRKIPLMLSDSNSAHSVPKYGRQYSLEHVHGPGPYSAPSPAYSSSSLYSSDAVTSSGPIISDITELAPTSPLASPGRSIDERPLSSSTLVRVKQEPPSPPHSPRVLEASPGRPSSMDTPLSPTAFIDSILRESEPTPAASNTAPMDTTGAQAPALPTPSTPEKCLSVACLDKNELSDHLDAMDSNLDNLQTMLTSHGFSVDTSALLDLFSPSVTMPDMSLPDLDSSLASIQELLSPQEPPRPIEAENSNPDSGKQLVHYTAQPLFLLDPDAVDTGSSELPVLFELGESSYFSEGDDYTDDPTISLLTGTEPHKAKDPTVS
# [21] = molecular target: T5, Replicative DNA helicase DnaB (Mycobacterium tuberculosis, UniProt P9WMR3); test: DnaB intein splicing inhibitors, dose response, biochemical, cell-free fluorescence (AID 449749); type: functional
# T5 sequence (P9WMR3 whole entry): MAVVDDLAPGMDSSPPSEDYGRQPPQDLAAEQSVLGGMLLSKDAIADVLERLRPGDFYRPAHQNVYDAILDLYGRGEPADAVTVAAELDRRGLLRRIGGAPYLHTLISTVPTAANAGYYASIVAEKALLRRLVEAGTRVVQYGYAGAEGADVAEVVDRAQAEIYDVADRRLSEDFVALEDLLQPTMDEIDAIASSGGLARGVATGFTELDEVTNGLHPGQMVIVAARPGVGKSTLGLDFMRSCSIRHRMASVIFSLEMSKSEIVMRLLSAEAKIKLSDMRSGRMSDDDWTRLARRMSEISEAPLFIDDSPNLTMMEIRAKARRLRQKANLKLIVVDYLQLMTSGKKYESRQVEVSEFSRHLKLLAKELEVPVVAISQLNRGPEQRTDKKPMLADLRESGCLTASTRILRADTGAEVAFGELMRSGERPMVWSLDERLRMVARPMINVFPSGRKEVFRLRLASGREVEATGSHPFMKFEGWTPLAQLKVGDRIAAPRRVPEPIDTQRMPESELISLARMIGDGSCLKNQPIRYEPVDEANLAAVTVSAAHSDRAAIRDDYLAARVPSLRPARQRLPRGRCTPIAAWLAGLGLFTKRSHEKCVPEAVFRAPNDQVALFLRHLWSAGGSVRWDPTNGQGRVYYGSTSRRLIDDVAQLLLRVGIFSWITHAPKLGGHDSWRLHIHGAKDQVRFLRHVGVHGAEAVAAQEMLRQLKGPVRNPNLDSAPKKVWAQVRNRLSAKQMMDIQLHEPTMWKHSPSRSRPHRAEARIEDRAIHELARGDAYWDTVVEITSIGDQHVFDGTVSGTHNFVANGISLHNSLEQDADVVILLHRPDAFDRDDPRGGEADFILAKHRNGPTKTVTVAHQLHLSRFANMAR
# Protein RecA = molecular target: T6, Protein RecA (Mycobacterium tuberculosis, UniProt P9WHJ3); test: Fluorescence Cell-Free Homogeneous Dose Retest to Identify Inhibitors of RecA-Intein Splicing Activity. [Related pubchem assays (depositor defined):AID2097, AID2223, AID489010, AID492950]; type: functional
# T6 sequence (P9WHJ3 whole entry): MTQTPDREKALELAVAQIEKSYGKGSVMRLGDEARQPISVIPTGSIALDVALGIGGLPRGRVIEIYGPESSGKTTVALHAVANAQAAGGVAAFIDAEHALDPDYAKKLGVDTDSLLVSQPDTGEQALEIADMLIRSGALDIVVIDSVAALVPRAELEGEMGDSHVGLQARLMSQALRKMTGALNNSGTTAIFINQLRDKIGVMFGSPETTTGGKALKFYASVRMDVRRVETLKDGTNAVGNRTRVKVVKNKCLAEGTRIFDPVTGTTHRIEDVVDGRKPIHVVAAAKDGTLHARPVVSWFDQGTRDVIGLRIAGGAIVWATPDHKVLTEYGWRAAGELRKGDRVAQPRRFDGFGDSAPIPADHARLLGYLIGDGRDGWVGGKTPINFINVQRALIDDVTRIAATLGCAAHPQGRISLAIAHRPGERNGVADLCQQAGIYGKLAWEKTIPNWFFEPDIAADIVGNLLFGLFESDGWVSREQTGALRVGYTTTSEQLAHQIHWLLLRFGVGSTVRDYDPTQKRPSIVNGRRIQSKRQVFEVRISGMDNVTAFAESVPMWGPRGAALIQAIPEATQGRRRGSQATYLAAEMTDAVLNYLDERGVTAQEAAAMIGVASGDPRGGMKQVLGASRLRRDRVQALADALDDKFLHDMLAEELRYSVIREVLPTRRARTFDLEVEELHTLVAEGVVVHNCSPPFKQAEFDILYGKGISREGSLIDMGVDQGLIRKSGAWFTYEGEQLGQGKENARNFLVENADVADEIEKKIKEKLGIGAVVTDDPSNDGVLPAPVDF
# INS1 = test: INS-1E survival protection against cytokine death – cell-based, luminescence, retest, dose response (AID 449756); type: functional; conditions: Rattus norvegicus;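 also: cell death triggered by IL-1 beta plus TNF-alpha plus IFN-gamma mixture; protective hits raise ATP signal compared with cytokine alone wells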
# [22] = molecular target: Dual specificity tyrosine-phosphorylation-regulated kinase 1A (Rattus norvegicus, UniProt Q63470); type: biochemical, Homo sapiens
# Paired box protein Pax-8 = Paired box protein Pax-8 (Homo sapiens, UniProt Q06710); test: PAX8 transcriptional activity inhibition in RMG-I – RMG-I cells, luciferase, cherry-pick, dose response (AID 687027); type: functional, cell-based;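 also: luciferase reporter driven by Pax8 target thyroperoxidase promoter measured by SteadyGlo luminescence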
# Sequence of Paired box protein Pax-8 (Q06710 whole entry): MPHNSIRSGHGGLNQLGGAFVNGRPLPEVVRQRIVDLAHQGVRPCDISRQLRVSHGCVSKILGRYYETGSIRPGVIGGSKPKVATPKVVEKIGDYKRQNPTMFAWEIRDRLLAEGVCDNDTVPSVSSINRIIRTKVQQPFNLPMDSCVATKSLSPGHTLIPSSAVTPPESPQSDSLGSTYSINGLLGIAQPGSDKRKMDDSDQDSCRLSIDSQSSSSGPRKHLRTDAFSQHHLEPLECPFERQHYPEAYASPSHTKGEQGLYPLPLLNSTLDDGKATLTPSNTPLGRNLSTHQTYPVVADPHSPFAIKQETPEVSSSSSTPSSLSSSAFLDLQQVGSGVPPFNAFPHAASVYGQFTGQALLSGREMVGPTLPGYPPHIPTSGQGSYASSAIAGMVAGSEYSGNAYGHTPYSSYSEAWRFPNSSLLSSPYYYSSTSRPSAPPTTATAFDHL
# T1 sequence (P63165 whole entry): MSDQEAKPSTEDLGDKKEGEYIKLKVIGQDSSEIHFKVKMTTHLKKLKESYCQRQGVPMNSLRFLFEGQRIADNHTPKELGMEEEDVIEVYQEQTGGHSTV
smiles,measurement,setting,value
O=C(CCS(=O)(=O)c1ccc(Br)cc1)N1CCCCCC1,IC50,[1],> 66.6 µM (inactive)
same,IC50,[2],13 µM (active)
S=C(NCCc1ccccc1)Nc1cccc2cnccc12,AC50,[3],0.922 µM (active)
same,AC50,[4],2.49 µM (active)
same,AC50,[5],1.05 µM (active)
same,IC50,Galanin receptor type 3,1.66 µM (active)
same,EC50,cells [6],> 29.9 µM (inactive)
same,IC50,[7],7.44 µM (active)
CCOc1ccc(NC(=O)COC(=O)CC2CCCCC2)cc1,IC50,[8],35.9 µM (inactive)
same,IC50,Steroidogenic factor 1,35.9 µM (inactive)
same,IC50,[9],35.9 µM (inactive)
C=CCCC(=O)Nc1nc(C)c(-c2csc(Nc3cccc(OC)c3)n2)s1,IC50,[1],> 66.6 µM (inactive)
same,IC50,[2],17.7 µM (active)
CC(=O)c1cccc(NC(=O)c2cccc(N3C(=O)c4ccccc4C3=O)c2)c1,IC50,[1],> 66.6 µM (inactive)
same,IC50,[2],8.03 µM (active)
Cc1ccc(Cc2cnc(N3C(=N)SC(C)C3=O)s2)cc1 (stereo not drawn),EC50,[10],0.574 µM (active)
same,EC50,Streptococcus,3.44 µM (active)
same,IC50,Beta-galactosidase,> 66.6 µM (inactive)
same,IC50,[11],1.89 µM (active)
Cc1cc(Br)ccc1NC(=O)CN1C(=O)CCC1=O,IC50,[8],12 µM (inactive)
same,IC50,Steroidogenic factor 1,0.877 µM (active)
same,IC50,[9],35.9 µM (inactive)
Oc1[nH]c2ccc(Br)cc2c1N=NC(=S)N1CCOCC1,EC50,[12],> 150 µM (inconclusive)
same,EC50,[10],< 0.06 µM (active)
same,EC50,BJ [13],1.81 µM (inconclusive)
same,EC50,cells [14],137 µM (active)
same,EC50,BJ [15],12.8 µM (inconclusive)
same,EC50,[16],3.18 µM (active)
same,EC50,cells [17],> 350 µM (not active)
same,EC50,BJ [18],5.1 µM (inconclusive)
same,EC50,[19],7.46 µM (inconclusive)
same,EC50,Streptococcus,0.167 µM (active)
same,IC50,Nonstructural protein 1,19.9 µM (active)
same,EC50,[20],> 260 µM (inactive)
same,AC50,[21],> 380 µM (inactive)
same,EC50,Protein RecA,22.7 µM (active)
same,AC50,INS1,1.6 µM (active)
same,AC50,[22],7.39 µM (active)
same,IC50,[11],1.81 µM (active)
same,AC50,Paired box protein Pax-8,1.55 µM (active)
COC(=O)c1ccc(CNC(=O)COC(=O)c2cc(Cl)nc(Cl)c2)cc1,IC50,[8],12 µM (inactive)
same,IC50,Steroidogenic factor 1,12 µM (inactive)
same,IC50,[9],35.9 µM (inactive)
